Test results: publication PMC12344758, “Qsarna: An Online Tool for Smart Chemical Space Navigation in Drug Design” (Journal of Chemical Information and Modeling, 2025)

What was measured:
MAO-A = target: T1, MAO-A (Homo sapiens, UniProt P21397); test: Monoamine Oxidase-A Inhibitor Screening Kit (Merck, MAK295), fluorometric assay; format: biochemical; details: for inhibition at 10 µM: concentration 10 uM; for inhibition at 100 µM: concentration 100 uM; for IC50: secondary screen, 10 concentrations from 100 µM, duplicate; for inhibition at 1 µM: concentration 1 uM
T1 construct: purchased Merck MAK295
T1 sequence (P21397 1-527): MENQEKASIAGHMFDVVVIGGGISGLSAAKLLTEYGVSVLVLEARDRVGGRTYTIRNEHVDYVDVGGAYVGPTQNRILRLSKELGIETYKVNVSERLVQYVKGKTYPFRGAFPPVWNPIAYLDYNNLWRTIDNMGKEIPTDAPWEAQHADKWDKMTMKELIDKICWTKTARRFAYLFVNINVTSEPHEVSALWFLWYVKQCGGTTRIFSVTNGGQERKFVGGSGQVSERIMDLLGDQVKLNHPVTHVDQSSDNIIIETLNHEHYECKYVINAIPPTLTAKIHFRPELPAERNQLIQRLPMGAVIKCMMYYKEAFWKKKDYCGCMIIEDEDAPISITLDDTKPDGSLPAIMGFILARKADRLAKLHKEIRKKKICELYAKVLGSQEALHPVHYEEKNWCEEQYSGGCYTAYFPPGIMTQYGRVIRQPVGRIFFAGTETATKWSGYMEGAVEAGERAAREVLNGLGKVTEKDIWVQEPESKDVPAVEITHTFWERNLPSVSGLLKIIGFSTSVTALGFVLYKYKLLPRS
Method: (§1) The experimental details for determining IC50 are presented in Supporting Information B.
(§2) To evaluate the IC50 of inhibitors, two fluorometric assays were used: the Monoamine Oxidase-A Inhibitor Screening Kit and the Monoamine Oxidase-B Inhibitor Screening Kit (Merck), according to the manufacturer’s protocol. The Echo dose-response software was used to prepare the plates. The compounds were tested at 10 concentrations, starting from 100 µM with a dilution factor of 3.16. All compounds were tested in duplicate in a final concentration of 1% of DMSO. Using a Mantis Liquid Dispenser (Formulatrix), 12.5 µL of protein was added to each tested compound (final concentration of 56 nM) and incubated for 60 minutes at 25°C (MAO-A) or 60 minutes at 37°C (MAO-B). Subsequently, the enzymatic reaction was initiated by adding 10 µL of substrate per well, followed by incubation for 60 minutes at 25°C (MAO-A) or 60 minutes at 37°C (MAO-B). The fluorescence intensity was measured using a plate reader (BioTek Synergy H1) with the following settings: excitation at 535 nm and emission at 587 nm. The data were normalized against low control (assay buffer […]
(§3) (1 picture or pasted object on this page, not shown here) […]
(§4) containing substrate) and high control (protein and substrate). The results were presented as a percentage of inhibition. […]

MAO-B = target: T2, MAO-B (Homo sapiens, UniProt P27338); test: Monoamine Oxidase-B Inhibitor Screening Kit (Merck, MAK296), fluorometric assay; format: biochemical; details: for inhibition at 1 µM: concentration 1 uM; for inhibition at 10 µM: concentration 10 uM; for inhibition at 100 µM: concentration 100 uM; for IC50: secondary screen, 10 concentrations from 100 µM, duplicate
T2 construct: purchased Merck MAK296
T2 sequence (P27338 1-520): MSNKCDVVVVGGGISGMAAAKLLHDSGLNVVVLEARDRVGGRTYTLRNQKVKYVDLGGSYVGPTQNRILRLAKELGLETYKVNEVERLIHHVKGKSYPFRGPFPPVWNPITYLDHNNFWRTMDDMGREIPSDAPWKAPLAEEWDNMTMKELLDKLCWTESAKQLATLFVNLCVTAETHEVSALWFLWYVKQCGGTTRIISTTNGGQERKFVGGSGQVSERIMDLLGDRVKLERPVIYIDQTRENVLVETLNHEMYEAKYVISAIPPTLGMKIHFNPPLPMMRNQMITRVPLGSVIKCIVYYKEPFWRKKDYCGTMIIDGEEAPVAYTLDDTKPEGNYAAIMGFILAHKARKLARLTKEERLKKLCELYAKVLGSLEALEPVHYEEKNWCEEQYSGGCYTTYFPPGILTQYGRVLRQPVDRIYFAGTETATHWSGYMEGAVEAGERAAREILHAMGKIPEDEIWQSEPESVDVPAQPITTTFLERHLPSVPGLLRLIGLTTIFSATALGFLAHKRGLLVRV
Method: as §1, §2, §3, §4

Row | inhibition at 10 µM (MAO-A) | inhibition at 100 µM (MAO-A) | IC50 (MAO-A) | inhibition at 1 µM (MAO-B) | inhibition at 10 µM (MAO-B) | inhibition at 100 µM (MAO-B) | IC50 (MAO-B) | inhibition at 1 µM (MAO-A) | SMILES
1 | 16.5% | 84.2% | 23.6 µM | 5.64% | 37.9% | 81.3% | 11.9 µM |  | Fc1ccc(-c2ccc3c(c2)[nH]c2ccncc23)cn1 [MolPort-044-831-708]
2 | 0% | 43.5% |  | 59% | 81% | 97.3% | 0.46 µM | 4.19% | CC(=O)NCC1CN(c2ccc(N3CCOCC3)c(F)c2)C(=O)O1 (stereo not shown) [MolPort-002-744-025]
3 | 0% | 0% |  | 0% | 0% | 0% |  | 0% | Cc1nnc2c(Cc3ccccc3)nc3ccccc3n12 [Molport-002-872-748]
4 | 0% | 0% |  | 40% | 83.7% | 96.4% | 0.0661 µM | 0% | CCc1ccc(Nc2ncc3c(n2)CC(C)CC3=O)cc1 (stereo not shown) [MolPort-000-511-281]
5 | 24.3% | 46.7% |  | 3.45% | 0.34% | 39.5% |  | 10.8% | Cc1csc(N/N=C/c2cc(Cl)ccc2Cl)n1 [MolPort-000-660-156]
6 | 26.1% | 7.8% |  | 0% | 32.5% | 84.4% | 32.4 µM | 7.2% | Clc1ccc(/C=N/c2ccc3[nH]ncc3c2)c(Cl)c1 [MolPort-002-945-866]
7 | 0% | 0% |  | 91.3% | 98.4% | 98% | 0.00976 µM | 4.35% | O=c1oc2cc(OCc3cccc(Cl)c3)ccc2c2c1CCC2 [MolPort-000-651-742]
8 | 0% | 15.7% |  | 0% | 0% | 0% |  | 0% | O=C(Cn1c(=O)oc2ccccc21)Nc1nnc(SCc2ccccc2)s1 [MolPort-001-610-534]
9 | 0% | 0% |  | 0% | 0% | 46.3% |  | 0% | COc1ccc(C2SCC(=O)N2NC(=O)COc2ccc3c(C)cc(=O)oc3c2)cc1 (stereo not shown) [MolPort-002-546-020]
10 | 0% | 0% |  | 0% | 0% | 0% |  | 0% | Cc1ccc(/C=N/Nc2nc3ccccc3nc2Cc2ccccc2)cc1 [Molport-002-863-179]
11 | 0% | 0% |  | 0% | 21% | 77.5% |  | 0% | Cc1nc(Nc2ncc3c(n2)CC(C)CC3=O)nc2ccccc12 (stereo not shown) [MolPort-000-510-622]
12 | 0% | 0% |  | 0% | 51.7% | 91.2% | 10.3 µM | 0% | O=C(Nc1ccc(Cl)cc1)C1=Cc2ccccc2OC1 [MolPort-000-686-585]
13 | 93.7% | 97.8% | 0.6 µM | 0% | 0% | 27.7% |  | 80.5% | CC(=O)Nc1ccc2c(c1)-c1ccccc1C2=O [MolPort-001-824-101]
14 | 0% | 0% |  | 0% | 0% | 0% |  | 0% | Cc1cc(=O)oc2cc(OCC(=O)N/N=C/c3ccccc3)ccc12 [MolPort-002-548-000]
15 | 0% | 0% |  | 0% | 0% | 0% |  | 0% | COc1ccc(C2=NN(C(C)=O)C(c3ccccc3)C2)c(O)c1 (stereo not shown) [MolPort-000-773-355]
16 | 17.7% | 84.1% | 31.9 µM | 11.9% | 30.3% | 105% | 2.32 µM | 0% | Cc1cc(=O)oc2c(C)c(OCc3nnc(S)n3-c3ccc(Br)cc3)ccc12 [MolPort-002-847-536]
17 | 5.32% | 25.6% |  | 0% | 0% | 27.3% |  | 1.21% | Cc1c(-c2ccccc2)c(=O)oc2cc(OS(=O)(=O)c3ccc(Br)cc3)ccc12 [MolPort-000-479-802]

Row | SMILES | inhibition at 10 µM (MAO-A) | inhibition at 100 µM (MAO-A) | IC50 (MAO-A) | inhibition at 1 µM (MAO-B) | inhibition at 10 µM (MAO-B) | inhibition at 100 µM (MAO-B) | IC50 (MAO-B) | inhibition at 1 µM (MAO-A)
18 | O=c1c(-c2ccccc2)coc2cc(O)cc(O)c12 [MolPort-003-665-835] | 0% | 0% |  | 0% | 39.8% | 87.3% | 2.83 µM | 0%
